What is called IC50 is the concentration needed to halve the response being measured. Low values mean higher potency, high ones lower potency.

This passage reports IC50 results from patent US10961202B2, “Bis-benzimidazole compounds and methods of using the same” (THE SCRIPPS RESEARCH INSTITUTE, priority 2017, dated 2021).

For one assay, the system named is r(CUG)12-MBNL1 complex. In words: Inhibition of the r(CUG)12-MBNL1 complex measured by TR-FRET. The note with it: Table L; 80 nM RNA, 60 nM MBNL1-His6. Type of assay: biochemical. (In general: TR-FRET usually uses a lanthanide donor and a delayed reading to cut background.)
`Cn1c(-c2ccc(-c3nc4ccc(NC(=N)N)cc4n3C)cc2)nc2cc(NC(=N)N)ccc21` [Compound 87]: the half-maximal inhibitory concentration (IC50) was greater than 200 µM.

`Nc1ccc2nc(-c3ccc(-c4nc5ccc(Nc6ncc[nH]6)cc5[nH]4)cc3)[nH]c2c1` [Compound 19, 2-(4-(5-amino-1H-benzo[d]imidazol-2-yl)phenyl)-N-(1H-imidazol-2-yl)-1H-benzo[d]imidazol-5-amine] gave a 50% inhibitory concentration (IC50) of 34 µM. That is a double-digit micromolar value. Same read-out and setting: the same measure for `N=C(NO)c1ccc2nc(-c3ccc(-c4nc5ccc(C(=N)NO)cc5[nH]4)cc3)[nH]c2c1` [Compound 25, 2,2′-(1,4-phenylene)bis(N-hydroxy-1H-benzo[d]imidazole-6-carboximidamide)]: 144 µM; for `CN1CCN(CCNC(=O)c2ccc(-c3nc4cc(-c5ccc6[nH]c(-c7ccc(C(=O)NCCN8CCN(C)CC8)cc7)nc6c5)ccc4[nH]3)cc2)CC1` [Compound 117]: 8.9 µM. Consider `Nc1ccc(-c2nc3cc(-c4ccc5[nH]c(-c6ccc(N)cc6)nc5c4)ccc3[nH]2)cc1` [Compound 95, 4,4′-(1H,1′H-[5,5′-bibenzo[d]imidazole]-2,2′-diyl)dianiline], for which the concentration for half-maximal inhibition (IC50) came out at 106 µM. On the same count and under the same terms, with `O=[N+]([O-])c1ccc(-c2nc3cc(-c4ccc5[nH]c(-c6ccc([N+](=O)[O-])cc6)nc5c4)ccc3[nH]2)cc1` [Compound 94] the figure was greater than 200 µM. The same measure, in the same setting: with `CC(C)(C)OC(=O)N1CCN=C1Nc1ccc2[nH]c(-c3ccc(-c4nc5cc(N)ccc5[nH]4)cc3)nc2c1` [Compound 23, tert-butyl 2-((2-(4-(5-amino-1H-benzo[d]imidazol-2-yl)phenyl)-1H-benzo[d]imidazol-5-yl)amino)-4,5-dihydro-1H-imidazole-1-carboxylate] the figure was 55 µM; with `CN(C)CCNC(=O)c1ccc(-c2nc3cc(-c4ccc5[nH]c(-c6ccc(C#N)cc6)nc5c4)ccc3[nH]2)cc1` [Compound 109], 15 µM; with `CNCCNC(=O)c1ccc(-c2nc3cc(-c4ccc5[nH]c(-c6ccc(C(=O)NCCN(C)C)cc6)nc5c4)ccc3[nH]2)cc1` [Compound 110, N-(2-(dimethylamino)ethyl)-4-(2′-(4-((2-(methylamino)ethyl)carbamoyl)phenyl)-1H,1′H-[5,5′-bibenzo[d]imidazol]-2-yl)benzamide], 6.9 µM. On the same count and under the same terms, the same measure for `COC(=O)CCC(=O)NCCN(C)CCNC(=O)c1ccc2nc(-c3ccc(-c4nc5ccc(C(=O)NCCN(C)C)cc5[nH]4)cc3)[nH]c2c1` [Compound 72]: 52.1 µM; for `CN(C)CCNC(=O)c1ccc2nc(-c3ccc(-c4nc5ccc(C#N)cc5[nH]4)cc3)[nH]c2c1` [Compound 15]: 45 µM.

With `c1cc2nc(-c3ccc(-c4nc5ccc(NC6=NCCN6C6=NCCN6)cc5[nH]4)cc3)[nH]c2cc1NC1=NCCN1` [Compound 76], the half-maximal inhibitory concentration (IC50) was 14.5 µM.

Staying with this assay, now noted: Table M; 80 nM RNA, 60 nM MBNL1-His6.
Take `C[C@H](CNC(=O)c1ccc(-c2nc3ccc(-c4ccc5nc(-c6ccc(C(=O)NCCN(C)C)cc6)[nH]c5c4)cc3[nH]2)cc1)NC(=O)c1ccc(-c2nc3ccc(-c4ccc5nc(-c6ccc(C(=O)NCCN(C)C)cc6)[nH]c5c4)cc3[nH]2)cc1` [Compound 441]: the IC50 turned out to be 66 µM. This counts as double-digit micromolar.

`CN(C)CCSCCOc1ccc2nc(-c3ccc(-c4nc5ccc(OCCSCCN(C)C)cc5[nH]4)cc3)[nH]c2c1` [Compound 210]: the IC50 was 33.3 µM. Consider `CN(C)CCNC(=O)c1ccc(-c2nc3ccc(-c4ccc5nc(-c6ccc(C(=O)NCC7CCCCN7C(=O)c7ccc(-c8nc9ccc(-c%10ccc%11nc(-c%12ccc(C(=O)NCCN(C)C)cc%12)[nH]c%11c%10)cc9[nH]8)cc7)cc6)[nH]c5c4)cc3[nH]2)cc1` (centres unmarked) [Compound 440], for which the IC50 amounted to 1.2 µM. The same measure, in the same setting: the same measure for `CN(C)Cc1cn(CCOc2ccc3nc(-c4ccc(-c5nc6ccc(OCCn7cc(CN(C)C)nn7)cc6[nH]5)cc4)[nH]c3c2)nn1` [Compound 227]: 120 µM.

Take `C[C@@H](C(=O)N(C)[C@@H](C)C(=O)N(C)[C@@H](C)C(=O)N(CCCCN(C)C(=O)c1ccc(-c2nc3cc(-c4ccc5[nH]c(-c6ccc(C(=O)NCCN(C)C)cc6)nc5c4)ccc3[nH]2)cc1)CC(N)=O)N(C)C(=O)c1ccc(-c2nc3cc(-c4ccc5[nH]c(-c6ccc(C(=O)NCCN(C)C)cc6)nc5c4)ccc3[nH]2)cc1` [Compound 415]: inhibition was half-maximal at 5.15 µM (IC50). Compared with the last compound, the IC50 is about 23-fold lower.

On to `CN(C)CCCOc1ccc2nc(-c3ccc(-c4nc5ccc(OCCCN(C)C)cc5[nH]4)c(Br)c3)[nH]c2c1` [Compound 294, 3,3′-(2,2′-(2-bromo-1,4-phenylene)bis(3H-benzo[d]imidazole-5,2-diyl))bis(oxy)bis(N,N-dimethylpropan-1-amine)], for which the midpoint of inhibition, the IC50, lay at 18.4 µM. Compound `c1cc2nc(-c3ccc(-c4nc5ccc(OCCN6CCCCC6)cc5[nH]4)cc3)[nH]c2cc1OCCN1CCCCC1` [Compound 191] registered a concentration for half-maximal inhibition (IC50) of 100 µM. For the compound `CN(C)CCCOc1ccc2nc(-c3ccc(-c4nc5ccc(OCCCN(C)C)cc5n4C)cc3)n(C)c2c1` [Compound 310], the IC50 was greater than 200 µM. Same read-out and setting: the same measure for `CN(C)CCNC(=O)c1ccc(-c2nc3ccc(-c4ccc5nc(-c6ccc(C(=O)NCC(C)(C)CNC(=O)c7ccc(-c8nc9ccc(-c%10ccc%11nc(-c%12ccc(C(=O)NCCN(C)C)cc%12)[nH]c%11c%10)cc9[nH]8)cc7)cc6)[nH]c5c4)cc3[nH]2)cc1` [Compound 425]: 9.83 µM; for `C[C@@H](NC(=O)CNCCNC(=O)c1ccc(-c2nc3cc(-c4ccc5[nH]c(-c6ccc(C(=O)NCCN(C)C)cc6)nc5c4)ccc3[nH]2)cc1)C(=O)N[C@H](C)C(=O)N[C@H](C)C(=O)N[C@H](C)C(=O)N(CCNC(=O)c1ccc(-c2nc3cc(-c4ccc5[nH]c(-c6ccc(C(=O)NCCN(C)C)cc6)nc5c4)ccc3[nH]2)cc1)CC(N)=O` (single isomer, unassigned) [Compound 444]: 13 µM; for `Cc1cc(-c2nc3cc(-c4ccc5[nH]c(-c6cc(C)c(OCCCN(C)C)c(C)c6)nc5c4)ccc3[nH]2)cc(C)c1OCCCN(C)C` [Compound 360]: 21.2 µM. `CN(C)CCCCOc1ccc(-c2nc3cc(-c4ccc5[nH]c(-c6ccc(O)cc6)nc5c4)ccc3[nH]2)cc1` [Compound 363]: the IC50 was 18.7 µM. `CN(C)CCCOc1ccc(-c2nc3cc(-c4ccc5[nH]c(-c6ccc(C(=O)NCCCn7cc(-c8cccc(NC(=O)c9ccc(-c%10nc%11cc(-c%12ccc%13[nH]c(-c%14ccc(C(=O)NCCN(C)C)cc%14)nc%13c%12)ccc%11[nH]%10)cc9)c8)nn7)cc6)nc5c4)ccc3[nH]2)cc1` [Compound 456]: the IC50 turned out to be 45.1 µM. On to `CN(C)CCNC(=O)c1ccc(-c2nc3ccc(-c4ccc5nc(-c6ccc(C(=O)Nc7cccc(-c8cn(CCCNCC(=O)N9CCCC9C(=O)N9CCC[C@H]9C(=O)N(CCCn9cc(-c%10cccc(NC(=O)c%11ccc(-c%12nc%13ccc(-c%14ccc%15nc(-c%16ccc(C(=O)NCCN(C)C)cc%16)[nH]c%15c%14)cc%13[nH]%12)cc%11)c%10)nn9)CC(N)=O)nn8)c7)cc6)[nH]c5c4)cc3[nH]2)cc1` (some centres unmarked) [Compound 446], for which half-maximal inhibition (IC50) was put at 7.1 µM. Turning to `Oc1ccc2nc(-c3ccc(-c4nc5ccc(O)cc5[nH]4)cc3)[nH]c2c1` [Compound 190, 2,2′-(1,4-phenylene)bis(1H-benzo[d]imidazol-6-ol)], it took 179 µM to reach half-maximal inhibition (IC50). Against the preceding compound, the IC50 is about 25-fold higher. Same read-out and setting: the same measure for `CN(C)CCCOc1cccc2nc(-c3ccc(-c4nc5cccc(OCCCN(C)C)c5[nH]4)cc3)[nH]c12` [Compound 215, 3,3′-((2,2′-(1,4-phenylene)bis(1H-benzo[d]imidazole-7,2-diyl))bis(oxy))bis(N,N-dimethylpropan-1-amine)]: 20.5 µM.

`CN1CC[C@@H](Oc2ccc(-c3nc4cc(-c5ccc6[nH]c(-c7ccc(O[C@@H]8CCN(C)C8)cc7)nc6c5)ccc4[nH]3)cc2)C1` [Compound 373] came in with a concentration for half-maximal inhibition (IC50) of 29.2 µM.

As for `CN(C)CCNC(=O)c1ccc(-c2nc3ccc(-c4ccc5nc(-c6ccc(C(=O)N[C@H]7CCN(C(=O)c8ccc(-c9nc%10ccc(-c%11ccc%12nc(-c%13ccc(C(=O)NCCN(C)C)cc%13)[nH]c%12c%11)cc%10[nH]9)cc8)C7)cc6)[nH]c5c4)cc3[nH]2)cc1` [Compound 455], the half-inhibitory concentration (IC50) amounted to 3.8 µM. `CC(=O)N(CCCCN(C)C(=O)c1ccc(-c2nc3cc(-c4ccc5[nH]c(-c6ccc(C(=O)NCCN(C)C)cc6)nc5c4)ccc3[nH]2)cc1)CC(=O)N(C)[C@@H](C)C(=O)N(C)[C@@H](C)C(=O)N(C)[C@@H](C)C(=O)N(CCCCN(C)C(=O)c1ccc(-c2nc3cc(-c4ccc5[nH]c(-c6ccc(C(=O)NCCN(C)C)cc6)nc5c4)ccc3[nH]2)cc1)CC(N)=O` [Compound 418] came in with a half-maximal inhibitory concentration (IC50) of 5.32 µM. Regarding `CN(C)CCCOc1ccc2nc(-c3ccc(-c4nc5ccc(C(=O)OC(C)(C)C)cc5[nH]4)cc3)[nH]c2c1` [Compound 254, tert-butyl 2-(4-(6-(3-(dimethylamino)propoxy)-1H-benzo[d]imidazol-2-yl)phenyl)-1H-benzo[d]imidazole-6-carboxylate], the half-maximal inhibitory concentration (IC50) is greater than 200 µM.

Compound `CN(C)Cc1ccc(Oc2ccc3nc(-c4ccc(-c5nc6ccc(Oc7ccc(CN(C)C)cc7)cc6[nH]5)cc4)[nH]c3c2)cc1` [Compound 242] displayed an IC50 of 47.7 µM. The same measure, in the same setting: with `CN1CCC(Oc2ccc3nc(-c4ccc(-c5nc6ccc(OC7CCN(C)CC7)cc6[nH]5)cc4)[nH]c3c2)CC1` [Compound 208] the figure was 101 µM. As for `CN1CCN(CCNC(=O)c2ccc(-c3nc4cc(-c5ccc6[nH]c(-c7ccc(C(=O)O)cc7)nc6c5)ccc4[nH]3)cc2)CC1` [Compound 343], inhibition was half-maximal at 73.2 µM (IC50). This IC50 and that of the compound before are within 1.5-fold of each other.

`C[C@@H](NC(=O)CNCCCn1cc(CCCCN(C)CCNC(=O)CCCOc2ccc3[nH]c(-c4ccc(-c5nc6cc(OCCCN(C)C)ccc6[nH]5)cc4)nc3c2)nn1)C(=O)N[C@H](C)C(=O)N[C@H](C)C(=O)N[C@H](C)C(=O)N(CCCn1cc(CCCCN(C)CCNC(=O)CCCOc2ccc3[nH]c(-c4ccc(-c5nc6cc(OCCCN(C)C)ccc6[nH]5)cc4)nc3c2)nn1)CC(N)=O` [Compound 407] displayed an IC50 of 110 µM.

For the compound `NCCCOc1ccc(-c2nc3cc(-c4ccc5[nH]c(-c6ccc(OCCCN)cc6)nc5c4)ccc3[nH]2)cc1` [Compound 378], 17.3 µM corresponded to half-maximal inhibition (IC50). Turning to `CN(C)CCNC(=O)c1ccc(-c2nc3ccc(-c4ccc5nc(-c6ccc(C(=O)NCCCN(C)CCCNC(=O)c7ccc(-c8nc9ccc(-c%10ccc%11nc(-c%12ccc(C(=O)NCCN(C)C)cc%12)[nH]c%11c%10)cc9[nH]8)cc7)cc6)[nH]c5c4)cc3[nH]2)cc1` [Compound 451], the IC50 is 14 µM.
